The subject of experiment [1] is ovarian (A2780) cancer cell line. As to conditions: A2780, WO2012/073217; cited from earlier work.
Experiment [2] deals with breast cancer (MCF7) cell line. Conditions: MCF7, WO2012/073217; cited from earlier work.
The test system of experiment [3] is L428, a Hodgkin's lymphoma cell line expressing low to moderate levels of CD30. In words: In vitro cytotoxicity assay (CellTiter-Glo) on L428. The experiment is classed as cell-based, human. Conditions: CD30 LO L428 cells, 4 days, up to 20 μg/ml. Background: In ATP-based viability assays light output follows the ATP content of the culture.
Procedure: For this, cells were plated on 96-well plates in 100 μl RPMI/10% FCS at a density of 10^4 cells per well and grown at 37° C. in a humidified incubator at 5% CO2 atmosphere. After one day incubation, 25 μl medium was carefully removed from each well and replaced by 25 μl of 3.5-fold serial dilutions of each ADC in growth medium, resulting in final ADC concentrations ranging from 20 μg/ml to 0.25 ng/ml. Each dilution was done in duplicate. After 4 additional days, plates were removed from the incubator and equilibrated to room temperature. After approximately 30 minutes, 100 μl CellTiter-Glo® Luminescent Solution (Promega, Cat. No G7570) was added to each well and, after shaking the plates at 450 rpm for 5 min followed by a 10 min incubation without shaking, luminescence was measured on a Tecan Infinity F200 with an integration time of 1 second per well.
Cells were incubated with serial dilutions of ADCs for 4 days, after which CellTiter-Glo® Luminescent Solution (Promega) was added and viable cells were quantified by measuring the luminescence on a Tecan Infinity F200.

Take `COc1cccc2c1C(=O)c1c(O)c3c(c(O)c1C2=O)C[C@@](O)(C(=O)CO)C[C@@H]3O[C@H]1C[C@H]2[C@H](O[C@@H]3[C@@H](OC)OCCN32)[C@H](C)O1` [PNU-159682]: the “potency for in vitro cell killing” value in experiment [1] and in experiment [2] was “pico- to femtomolar range” throughout.
As to Adcetris, in experiment [3], the “cell killing (in words)” value was “inefficient at killing”.
On the same count and under the same terms, in the case of cAc10-PNU-EDA-Gly5 it was “only at higher concentrations, similar to the control ADCs employed”.

The values above are taken from US11833120B2, “Binding protein drug conjugates comprising anthracycline derivatives” (priority 2014, dated 2023).
